In patent US12419963B2, “Diels-Alder conjugation methods” (priority 2020, dated 2025):
Square brackets hold non-standard residues; d marks the D form. Peptide text beside a SMILES is read from it. * marks the point of attachment. Dolaproine = CO[C@@H]([C@@H]1CCCN1)[C@@H](C)C(=O)O; Dil = CC[C@H](C)[C@H](NC)[C@@H](CC(=O)O)OC; X1 = C[C@@H](N*)[C@H](O)c1ccccc1; NMeV = CN[C@H](C(=O)O)C(C)C

What was measured:
SKBR3 (Her2+) cells = assay: In vitro cytotoxicity assay (CCK8 cell viability), SKBR3; assay type: cell-based
Description: (§1) In this Example, the ability of various antibody-drug conjugates and naked payloads to kill antigen-expressing tumor cells in vitro was assessed.
(§2) SKBR3 (Her2+) cells were seeded in 96 well plates at 8000 cells per well in complete growth media and grown overnight. For cell viability curves, serially diluted conjugates or naked payloads were added to the cells at final concentrations ranging from 100 nM to 5 pM and incubated for 3 days. NCI H929 and NCI H1975 (Her2−) cells were run as negative controls using similar conditions. To measure viability, cells were incubated with CCK8 (Dojindo) for the final 2 hours and the absorbance at 450 nm (OD450) was determined on a Victor (Perkin Elmer). Background OD450 levels determined from digitonin (40 nM) treated cells were subtracted from all wells and viability was expressed as a percentage of the untreated controls. IC50 values were determined from a four-parameter logistic equation over a 10-point response curve (GraphPad Prism). […] The interchain disulfide conjugates had similar IC50 values as the transglutaminase site-specific Diels-Alder conjugates. […] IC50 values are corrected for payload equivalents and the results of other transglutaminase site-specific Diels-Alder conjugates' cell viability are shown in Table 5. […]

NCI H929 (Her2−) cells = assay: In vitro cytotoxicity assay (CCK8 cell viability), NCI H929 negative control; assay type: cell-based
Description: as §1, §2

CC[C@H](C)[C@@H]([C@@H](CC(=O)N1CCC[C@H]1[C@H](OC)[C@@H](C)C(=O)N[C@H](C)[C@H](O)c1ccccc1)OC)N(C)C(=O)[C@@H](NC(=O)[C@@H](NC)C(C)C)C(C)C [MMAE, Monomethyl auristatin E] (H-[NMeV]V[Dil][Dolaproine]-X1)
IC50 (SKBR3 (Her2+) cells; Homo sapiens, SK-BR-3, 72 h): 0.031 nM
% Kill (SKBR3 (Her2+) cells; SK-BR-3 cells, 3 days incubation, CCK8): 97.3%
IC50 (NCI H929 (Her2−) cells; Homo sapiens, NCI-H929, 72 h): 0.209 nM
% Kill (NCI H929 (Her2−) cells; NCI H929 cells (HER2-), 3 days incubation, CCK8): 99.7%
